From US20250230138A1, “COMPOUNDS HAVING A T-STRUCTURE FORMED BY AT LEAST FOUR CYCLES FOR USE IN THE TREATMENT OF CANCER AND OTHER INDICATIONS” (TheRas, Inc., priority 2022, published 2025)

Assays:
pAKT in BT474 cells = test: Cell-based pAKT HTRF assay in BT474 cells; conditions: BT474 cells; 4 hr incubation; Compounds 10-999; read-out: pAKT inhibition IC50 in BT474 cells
How it was run: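 9-pt curve, top 3 μM, 3-fold steps, 0.25% DMSO; 4 hr compound exposure. Lysis, then HTRF with d2/Eu Cryptate antibody pair, 4–24 h RT. Ex 320 nm, Em 615 nm.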

[1] = molecular target: Cys242 in human PIK3CA (157-299) (Homo sapiens (Human), UniProt P42336); test: Covalent modification assay using MALDI-TOF MS; format: biochemical; conditions: 4 h reaction time point; 3.33 μM protein target, 1:7.5 protein to compound ratio (compounds 1-852)
How it was run: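 PIK3CA (157-299), 3.33 or 1 μM in 20 mM HEPES, 150 mM NaCl, 2 mM MgCl2, pH 7.3, was incubated with compound at room temperature in the dark for 15 min, 30 min, 2 h or 4 h. Linear MALDI-TOF read-out; % modification = adduct peak height over summed heights of all protein species.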

Chain of Cys242 in human PIK3CA (157-299) (P42336 157-299): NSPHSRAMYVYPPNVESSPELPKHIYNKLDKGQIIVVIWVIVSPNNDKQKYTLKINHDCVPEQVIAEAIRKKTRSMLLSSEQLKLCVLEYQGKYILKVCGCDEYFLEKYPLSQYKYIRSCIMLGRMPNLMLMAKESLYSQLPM

| SMILES | IC50 (pAKT in BT474 cells) | % of modification [1] |
| --- | --- | --- |
| C=CC(=O)N1CCc2nc(-c3nc(-c4ccc5c(c4)CCNC5)c4ccsc4c3-c3c(F)cc(F)cc3OCCOC)sc2C1 [Compound 366] | 0.1 to 1 µM | A (percent of modification of PIK3CA protein ≥75%) |
| C=CC(=O)N1CCc2nc(-c3nc(-c4ccc5c(c4)CCNC5)c4ccsc4c3-c3c(F)cc(F)cc3OC(C)C)sc2C1 [Compound 367] | 0.1 to 1 µM | A (percent of modification of PIK3CA protein ≥75%) |
| C=CC(=O)N1CC[C@H](n2cc(-c3nc(-c4cnn(C)c4)c4ccsc4c3-c3c(F)cc(F)cc3OCCOC)cn2)C1 [Compound 368] | 0.1 to 1 µM | A (percent of modification of PIK3CA protein ≥75%) |
| C=CC(=O)N1CCc2nc(-c3nc(-c4ccc5c(c4)CCN(C)C5)c4ccsc4c3-c3c(F)cc(F)cc3OCCOC)sc2C1 [Compound 369] | < 0.1 µM | A (percent of modification of PIK3CA protein ≥75%) |
| C=CC(=O)N1CCc2ncc(-c3nc(-c4cnn(CC(F)F)c4)c4ccsc4c3-c3c(F)cc(F)cc3OC(C)C)cc2C1 [Compound 371] | < 0.1 µM | A (percent of modification of PIK3CA protein ≥75%) |
| C=CC(=O)N1CCc2ncc(-c3nc(-c4cnc(N)nc4)c4ccsc4c3-c3c(F)cc(F)cc3OC(C)C)cc2C1 [Compound 372] | < 0.1 µM | A (percent of modification of PIK3CA protein ≥75%) |
| C=CC(=O)N1CCc2ncc(-c3nc(N4CCN(C(C)C)CC4)c4ccsc4c3-c3c(F)cc(F)cc3OC(C)C)cc2C1 [Compound 373] | 0.1 to 1 µM | A (percent of modification of PIK3CA protein ≥75%) |
| C=CC(=O)N1CCc2ncc(-c3nc(-c4ccn(C)c(=O)c4)c4ccsc4c3-c3c(F)cc(F)cc3OCCOC)cc2C1 [Compound 374] | < 0.1 µM | A (percent of modification of PIK3CA protein ≥75%) |
| C=CC(=O)N1CCc2ncc(-c3nc(-c4ccc(=O)n(C)c4)c4ccsc4c3-c3c(F)cc(F)cc3OCCOC)cc2C1 [Compound 375] | < 0.1 µM | A (percent of modification of PIK3CA protein ≥75%) |
| C=CC(=O)N1CCc2ncc(-c3nc(-c4cncc(C#N)c4)c4ccsc4c3-c3c(F)cc(F)cc3OCCOC)cc2C1 [Compound 376] | < 0.1 µM | A (percent of modification of PIK3CA protein ≥75%) |
| C=CC(=O)N1CCc2ncc(-c3nc(-c4cncc(Cl)c4)c4ccsc4c3-c3c(F)cc(F)cc3OCCOC)cc2C1 [Compound 377] | < 0.1 µM | A (percent of modification of PIK3CA protein ≥75%) |
| C=CC(=O)N1CCc2ncc(-c3nc(-c4cnc5c(c4)CN(C)CC5)c4ccsc4c3-c3c(F)cc(F)cc3OCCOC)cc2C1 [Compound 378] | < 0.1 µM | A (percent of modification of PIK3CA protein ≥75%) |
| C=CC(=O)N1CCc2ncc(-c3nc(-c4ccc5c(c4)CNC5=O)c4ccsc4c3-c3c(F)cc(F)cc3OCCOC)cc2C1 [Compound 379] | < 0.1 µM | A (percent of modification of PIK3CA protein ≥75%) |
| C=CC(=O)N1CCc2ncc(-c3nc(-c4cccc(C#N)c4)c4ccsc4c3-c3c(F)cc(F)cc3OCCOC)cc2C1 [Compound 380] | < 0.1 µM | A (percent of modification of PIK3CA protein ≥75%) |
| C=CC(=O)N1CCc2ncc(-c3nc(-c4cccc(C#N)c4)c4ccsc4c3-c3c(F)cc(F)cc3OC(C)C)cc2C1 [Compound 381] | < 0.1 µM | A (percent of modification of PIK3CA protein ≥75%) |
| C=CC(=O)N1CCc2ncc(-c3nc(-c4cnnc(C)c4)c4ccsc4c3-c3c(F)cc(F)cc3OCCOC)cc2C1 [Compound 383] | < 0.1 µM | A (percent of modification of PIK3CA protein ≥75%) |
| C=CC(=O)N1CCc2ncc(-c3nc(-c4ccc5c(c4)C(O)CC5)c4ccsc4c3-c3c(F)cc(F)cc3OC(C)C)cc2C1 (centres unmarked) [Compound 384] | < 0.1 µM | A (percent of modification of PIK3CA protein ≥75%) |
| C=CC(=O)N1CCc2ncc(-c3nc(-c4cnn(CC(F)F)c4)c4ccsc4c3-c3c(F)cc(F)cc3OCCOC)cc2C1 [Compound 385] | < 0.1 µM | A (percent of modification of PIK3CA protein ≥75%) |
| C=CC(=O)N1CC[C@@H](n2cc(-c3nc(-c4ccn(C)c(=O)c4)c4ccsc4c3-c3c(F)cc(F)cc3OC(C)C)cn2)C1 [Compound 386] | < 0.1 µM | A (percent of modification of PIK3CA protein ≥75%) |
| C=CC(=O)N1CC[C@@H](n2cc(-c3nc(-c4cnn(CC(F)F)c4)c4ccsc4c3-c3c(F)cc(F)cc3OC(C)C)cn2)C1 [Compound 387] | 0.1 to 1 µM | A (percent of modification of PIK3CA protein ≥75%) |
| C=CC(=O)N1CC[C@@H](n2cc(-c3nc(-c4cncc(C#N)c4)c4ccsc4c3-c3c(F)cc(F)cc3OC(C)C)cn2)C1 [Compound 388] | 0.1 to 1 µM | A (percent of modification of PIK3CA protein ≥75%) |
| C=CC(=O)N1CC[C@@H](n2cc(-c3nc(-c4ccc(=O)n(C)c4)c4ccsc4c3-c3c(F)cc(F)cc3OC(C)C)cn2)C1 [Compound 389] | < 0.1 µM | A (percent of modification of PIK3CA protein ≥75%) |
| C=CC(=O)N1CCc2nc(-c3nc(-c4ncn(C)n4)c4ccsc4c3-c3c(F)cc(F)cc3OC(C)C)sc2C1 [Compound 390] | < 0.1 µM | A (percent of modification of PIK3CA protein ≥75%) |
| C=CC(=O)N1CC[C@@H](n2cc(-c3nc(-c4cnnc(C)c4)c4ccsc4c3-c3c(F)cc(F)cc3OC(C)C)cn2)C1 [Compound 391] | < 0.1 µM | A (percent of modification of PIK3CA protein ≥75%) |

The next lines start with results.

| IC50 (pAKT in BT474 cells) | SMILES | % of modification [1] |
| --- | --- | --- |
| < 0.1 µM | C=CC(=O)N1CCc2ncc(-c3nc(-c4cnc(C)s4)c4ccsc4c3-c3c(F)cc(F)cc3OC(C)C)cc2C1 [Compound 392] | A (percent of modification of PIK3CA protein ≥75%) |
| < 0.1 µM | C=CC(=O)N1CCc2ncc(-c3nc(-c4cnn(C)c4)c4ccsc4c3-c3c(F)cc(F)cc3OCCOC)cc2C1 [Compound 393] | A (percent of modification of PIK3CA protein ≥75%) |
| < 0.1 µM | C=CC(=O)N1CCn2nc(-c3nc(-c4cnn(C)c4)c4ccsc4c3-c3ccc(F)cc3OC(C)C)cc2C1C (centres unmarked) [Compound 394] | A (percent of modification of PIK3CA protein ≥75%) |
| < 0.1 µM | C=CC(=O)N1CCc2ncc(-c3nc(-c4cnn(C)c4)c4ccsc4c3-c3c(F)cc(F)cc3OCCO)cc2C1 [Compound 395] | A (percent of modification of PIK3CA protein ≥75%) |
| < 0.1 µM | C=CC(=O)N1CCc2ncc(-c3nc(-c4ccc5c(c4)C(O)CC5)c4ccsc4c3-c3c(F)cc(F)cc3OCCOC)cc2C1 (centres unmarked) [Compound 397] | A (percent of modification of PIK3CA protein ≥75%) |
| < 0.1 µM | C=CC(=O)N1CCc2nc(-c3nc(-c4cnn(C)c4)c4ccsc4c3-c3c(F)cc(F)cc3OCCO)sc2C1 [Compound 398] | A (percent of modification of PIK3CA protein ≥75%) |
| < 0.1 µM | C=CC(=O)N1CCc2ncc(-c3nc(-c4ccc5c(c4)CCN(C)C5)c4ccsc4c3-c3c(F)cc(F)cc3OC(C)C)cc2C1 [Compound 399] | A (percent of modification of PIK3CA protein ≥75%) |
| < 0.1 µM | C=CC(=O)N1CCc2ncc(-c3nc(-c4ccc5nn(C)cc5c4)c4ccsc4c3-c3c(F)cc(F)cc3OCCOC)cc2C1 [Compound 400] | A (percent of modification of PIK3CA protein ≥75%) |
| 0.1 to 1 µM | C=CC(=O)N1CCc2nc(-c3nc(-c4cnn(CC(C)(C)N)c4)c4ccsc4c3-c3c(F)cc(F)cc3OC(C)C)sc2C1 [Compound 401] | A (percent of modification of PIK3CA protein ≥75%) |
| < 0.1 µM | C=CC(=O)N1CCc2ncc(-c3nc(-c4ccc5c(c4)CN(C)C5=O)c4ccsc4c3-c3c(F)cc(F)cc3OCCOC)cc2C1 [Compound 402] | A (percent of modification of PIK3CA protein ≥75%) |
| < 0.1 µM | C=CC(=O)N1CCc2ncc(-c3nc(-c4ccc5ncn(C)c5c4)c4ccsc4c3-c3c(F)cc(F)cc3OCCOC)cc2C1 [Compound 403] | A (percent of modification of PIK3CA protein ≥75%) |
| < 0.1 µM | C=CC(=O)N1CCc2ncc(-c3nc(-c4ccn(C)n4)c4ccsc4c3-c3c(F)cc(F)cc3OC(C)C)cc2C1 [Compound 404] | A (percent of modification of PIK3CA protein ≥75%) |
| < 0.1 µM | C=CC(=O)N1CCc2ncc(-c3nc(-c4cnn(C)c4)c4ccsc4c3-c3c(F)cc(F)cc3OC)cc2C1 [Compound 405] | A (percent of modification of PIK3CA protein ≥75%) |
| < 0.1 µM | C=CC(=O)N1CCc2ncc(-c3nc(-c4cncc(F)c4)c4ccsc4c3-c3c(F)cc(F)cc3OC(C)C)cc2C1 [Compound 406] | A (percent of modification of PIK3CA protein ≥75%) |
| < 0.1 µM | C=CC(=O)N1CCc2ncc(-c3nc(-c4ccc5c(c4)CN(C)C5=O)c4ccsc4c3-c3c(F)cc(F)cc3OC(C)C)cc2C1 [Compound 407] | A (percent of modification of PIK3CA protein ≥75%) |
| 0.1 to 1 µM | C=CC(=O)N1CCC(n2cc(-c3nc(-c4ccc5c(c4)CCNC5)c4ccsc4c3-c3c(F)cc(F)cc3OC(C)C)cn2)C1 (centres unmarked) [Compound 410] | A (percent of modification of PIK3CA protein ≥75%) |
